Data reported in patent publication US9169241B2, “Quinolinyloxyphenylsulfonamides” (Max-Planck-Gesellschaft Zur Forderung der Wissenschaften …, priority 2009, dated 2015).
pIC50: −log10 of the molar value. Where two headings read alike, the source gives them in different places.

Columns and labels:
Type in all cases: cell-based
U118 = experiment: Matrigel outgrowth assay/branching assay; settings: Table Vb, read-out: Total branching inhibition in Matrigel U118
How it was run: (§1)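 Step one: Matrigel (3 mg/ml) is set for 1 h at 37° C. Step two: 5000 cells per well go on in medium with compound (0.78–3.125 μM) or DMSO. Step three: images at 48, 72 and 96 h are scored for complete loss of branching.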

SF126 = experiment: Matrigel outgrowth assay/branching assay; settings: Homo sapiens, SF-126, Table Vb, read-out: Total branching inhibition in Matrigel SF126
How it was run: as §1

A172 = experiment: Matrigel outgrowth assay/branching assay; settings: Homo sapiens, A 172, Table Vb, read-out: Total branching inhibition in Matrigel A172
How it was run: as §1

Hs578T = experiment: Wound healing migration assay; settings: Homo sapiens, Hs-578T; HS578T cell line; Table Ib
How it was run: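 Cells seeded at 150000/24 well, grown to monolayer overnight, scratched with a pipette tip, then treated with compound at 12.5, 6.25 or 3.125 μM versus DMSO. Stopped by crystal violet fixation at 48-72 h once control wounds closed; IC50 taken as 50% wound size between t0 and t48 or t72.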

cells = experiment: Boyden chamber migration assay (Table VI); settings: Homo sapiens, Hs-578T, 16 h, Hs578T cells; 16 h migration
How it was run: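 20000 cells seeded in the upper compartment in 0% FCS plus 0.1% BSA and left 16 h to migrate through […] membrane toward 10% FCS medium below. Non-migrated cells swabbed off; cells on the filter underside fixed and counted.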

viable cells in culture = experiment: Cell viability assay at 10 μM (CellTiter-Glo, Table VII); settings: compound 10 μM, 72 h;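 also: graded A 0-20%; B 21-40%; C 41-60%; D over 60% viable cells relative to DMSO control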
How it was run: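 Viable cell number was measured with the CellTiter-Glo Luminescent Cell Viability Assay (Promega), following the manufacturer's protocol, which quantifies ATP as a marker of metabolically active cells. In 96-well plates, 1000 cells/well in 100 μl medium were exposed to compound at 10 μM, or to DMSO control, for 72 h. Values were calculated relative to DMSO-control ATP.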

SMILES | IC100 (U118) | IC100 (SF126) | IC100 (A172) | pIC50 (Hs578T) | further results
COC(=O)c1sccc1S(=O)(=O)Nc1ccc(Oc2ccnc3cc(OCCCN4CCC(C)CC4)c(OC)cc23)c(F)c1 [Example 156, 3-(3-Fluoro-4-{6-methoxy-7-[3-(4-methyl-piperidin-1-yl)-propoxy]-quinolin-4-yloxy}-phenylsulfamoyl)-thiophene-2-carboxylic acid methyl ester] | ≤ 12.5 µM | ≤ 12.5 µM | > 12.5 µM | ≥ 4.90 | –
COc1cc2c(Oc3ccc(NS(=O)(=O)c4cc(F)ccc4F)cc3Cl)ccnc2cc1OCCCN1CCN(C)CC1 [Example 112, N-(3-Chloro-4-{6-methoxy-7-[3-(4-methyl-piperazin-1-yl)-propoxy]-quinolin-4-yloxy}-phenyl)-2,5-difluoro-benzenesulfonamide] | ≤ 12.5 µM | ≤ 12.5 µM | ≤ 12.5 µM | ≥ 4.90 | –
COc1cc2c(Oc3ccc(NS(=O)(=O)c4cccc(Cl)c4F)cc3F)ccnc2cc1OCCCN1CCCC(C)C1 (stereo not shown) [Example 54, 3-Chloro-2-fluoro-N-(3-fluoro-4-{6-methoxy-7-[3-(3-methyl-piperidin-1-yl)-propoxy]-quinolin-4-yloxy}-phenyl)-benzenesulfonamide] | > 12.5 µM | ≤ 12.5 µM | > 12.5 µM | ≥ 4.90 | –
COc1cc2c(Oc3ccc(NS(=O)(=O)c4c(F)cccc4F)cc3F)ccnc2cc1OCCCN1CCN(C)CC1 [Example 110, 2,6-Difluoro-N-(3-fluoro-4-{6-methoxy-7-[3-(4-methyl-piperazin-1-yl)-propoxy]-quinolin-4-yloxy}-phenyl)-benzenesulfonamide] | ≤ 12.5 µM | ≤ 12.5 µM | > 12.5 µM | ≥ 4.90 | –
COc1cc2c(Oc3c(Cl)cc(NS(=O)(=O)c4c(F)cccc4F)cc3Cl)ccnc2cc1OCCCN1CCC(C)CC1 [Example 209, N-(3,5-Dichloro-4-{6-methoxy-7-[3-(4-methyl-piperidin-1-yl)-propoxy]-quinolin-4-yloxy}-phenyl)-2,6-difluoro-benzenesulfonamide] | ≤ 12.5 µM | ≤ 12.5 µM | ≤ 12.5 µM | ≥ 4.90 | –
COc1cc2c(Oc3ccc(NS(=O)(=O)c4ccccc4[N+](=O)[O-])cc3F)ccnc2cc1OCCCN1CCCC(C)C1 (stereo not shown) [Example 40, N-(3-Fluoro-4-{6-methoxy-7-[3-(3-methyl-piperidin-1-yl)-propoxy]-quinolin-4-yloxy}-phenyl)-2-nitro-benzenesulfonamide] | > 12.5 µM | ≤ 12.5 µM | > 12.5 µM | ≥ 4.90 | –
COc1cc2c(Oc3ccc(NS(=O)(=O)c4c(F)cccc4F)cc3F)ccnc2cc1OCCCN(C)C [Example 178, N-{4-[7-(3-Dimethylamino-propoxy)-6-methoxy-quinolin-4-yloxy]-3-fluoro-phenyl}-2,6-difluoro-benzenesulfonamide] | ≤ 12.5 µM | ≤ 12.5 µM | > 12.5 µM | 4.30 to 4.90 | –
COC(=O)c1sccc1S(=O)(=O)Nc1ccc(Oc2ccnc3cc(OCCCN4CCOCC4)c(OC)cc23)c(F)c1 [Example 157, 3-{3-Fluoro-4-[6-methoxy-7-(3-morpholin-4-yl-propoxy)-quinolin-4-yloxy]-phenylsulfamoyl}-thiophene-2-carboxylic acid methyl ester] | > 12.5 µM | ≤ 12.5 µM | > 12.5 µM | ≥ 4.90 | –
COc1cc2c(Oc3ccc(NS(=O)(=O)c4c(Cl)cccc4Cl)cc3F)ccnc2cc1OCCCN1CCCCC1 [Example 6, 2,6-Dichloro-N-{3-fluoro-4-[6-methoxy-7-(3-piperidin-1-yl-propoxy)-quinolin-4-yloxy]-phenyl}-benzenesulfonamide] | ≤ 12.5 µM | ≤ 12.5 µM | > 12.5 µM | ≥ 4.90 | –
COc1cc2c(Oc3ccc(NS(=O)(=O)c4ccccc4OC(F)(F)F)cc3F)ccnc2cc1OCCCN(C)C [Example 179, N-{4-[7-(3-Dimethylamino-propoxy)-6-methoxy-quinolin-4-yloxy]-3-fluoro-phenyl}-2-trifluoromethoxy-benzenesulfonamide] | ≤ 12.5 µM | ≤ 12.5 µM | > 12.5 µM | ≥ 4.90 | –
COc1cc2c(Oc3ccc(NS(=O)(=O)c4cccc(Oc5ccccc5)c4)cc3F)ccnc2cc1OCCCN1CCN(C)CC1 [Example 14, N-(3-Fluoro-4-{6-methoxy-7-[3-(4-methyl-piperazin-1-yl)-propoxy]-quinolin-4-yloxy}-phenyl)-3-phenoxy-benzenesulfonamide] | ≤ 12.5 µM | – | – | – | pIC50 (cells): ≥ 5.30; viability at 10 µM (viable cells in culture; Homo sapiens, HCT-116, HCT116 def, read-out: percentage (%) of viable cells HCT 116def): 21 to 40%; viability at 10 µM (viable cells in culture; Homo sapiens, HCT-116, HCT116 wt, read-out: percentage (%) of viable cells HCT 116wt): 0 to 20%; viability at 10 µM (viable cells in culture; Homo sapiens, HT-29, HT29, read-out: percentage (%) of viable cells HT29): 0 to 20%; viability at 10 µM (viable cells in culture; Homo sapiens, NCI-H358, H358, read-out: percentage (%) of viable cells H358): 21 to 40%; viability at 10 µM (viable cells in culture; Homo sapiens, NCI-H1650, H1650, read-out: percentage (%) of viable cells H1650): 21 to 40%; viability at 10 µM (viable cells in culture; Homo sapiens, NCI-H1666, H1666, read-out: percentage (%) of viable cells H1666): 41 to 60%; viability at 10 µM (viable cells in culture; Homo sapiens, NCI-H1975, H1975, read-out: percentage (%) of viable cells H1975): 21 to 40%; viability at 10 µM (viable cells in culture; Homo sapiens, NCI-H1993, H1993, read-out: percentage (%) of viable cells H1993): 0 to 20%; viability at 10 µM (viable cells in culture; Homo sapiens, A549, read-out: percentage (%) of viable cells A549): 41 to 60%; viability at 10 µM (viable cells in culture; Homo sapiens, HCC827, read-out: percentage (%) of viable cells HCC827): 21 to 40%; viability at 10 µM (viable cells in culture; Homo sapiens, SW480, read-out: percentage (%) of viable cells SW480): 0 to 20%; viability at 10 µM (viable cells in culture; RKO, read-out: percentage (%) of viable cells RKO): 0 to 20%
COC(=O)c1sccc1S(=O)(=O)Nc1ccc(Oc2ccnc3cc(OCCCN4CCN(C)CC4)c(OC)cc23)c(F)c1 [Example 158, 3-(3-Fluoro-4-{6-methoxy-7-[3-(4-methyl-piperazin-1-yl)-propoxy]-quinolin-4-yloxy}-phenylsulfamoyl)-thiophene-2-carboxylic acid methyl ester] | ≤ 12.5 µM | ≤ 12.5 µM | > 12.5 µM | ≥ 4.90 | –
COc1cc2c(Oc3ccc(NS(=O)(=O)c4c(Cl)cccc4Cl)cc3F)ccnc2cc1OCCCN(C)C [Example 181, 2,6-Dichloro-N-{4-[7-(3-dimethylamino-propoxy)-6-methoxy-quinolin-4-yloxy]-3-fluoro-phenyl}-benzenesulfonamide] | ≤ 12.5 µM | ≤ 12.5 µM | > 12.5 µM | ≥ 4.90 | –
COC(=O)c1sccc1S(=O)(=O)Nc1ccc(Oc2ccnc3cc(OCCCN4CCCC(C)C4)c(OC)cc23)c(F)c1 (stereo not shown) [Example 66, 3-(3-Fluoro-4-{6-methoxy-7-[3-(3-methyl-piperidin-1-yl)-propoxy]-quinolin-4-yloxy}-phenylsulfamoyl)-thiophene-2-carboxylic acid methyl ester] | ≤ 12.5 µM | ≤ 12.5 µM | > 12.5 µM | ≥ 4.90 | –
COc1cc2c(Oc3ccc(NS(=O)(=O)c4c(F)cccc4F)cc3F)ccnc2cc1OCCCN1CCCCC1 [Example 11, 2,6-Difluoro-N-{3-fluoro-4-[6-methoxy-7-(3-piperidin-1-yl-propoxy)-quinolin-4-yloxy]-phenyl}-benzenesulfonamide] | > 12.5 µM | > 12.5 µM | > 12.5 µM | ≥ 4.90 | –
COc1cc2c(Oc3ccc(NS(=O)(=O)c4ccccc4OC(F)(F)F)cc3F)ccnc2cc1OCCCN1CCCCC1 [Example 78, N-{3-Fluoro-4-[6-methoxy-7-(3-piperidin-1-yl-propoxy)-quinolin-4-yloxy]-phenyl}-2-trifluoromethoxy-benzenesulfonamide] | > 12.5 µM | ≤ 12.5 µM | > 12.5 µM | ≥ 4.90 | –
COC(=O)c1sccc1S(=O)(=O)Nc1ccc(Oc2ccnc3cc(OCCCN4CCCCC4)c(OC)cc23)c(F)c1 [Example 155, 3-{3-Fluoro-4-[6-methoxy-7-(3-piperidin-1-yl-propoxy)-quinolin-4-yloxy]-phenylsulfamoyl}-thiophene-2-carboxylic acid methyl ester] | ≤ 12.5 µM | ≤ 12.5 µM | ≤ 12.5 µM | ≥ 4.90 | –
COc1cc2c(Oc3ccc(NS(=O)(=O)c4c(Cl)cccc4Cl)cc3F)ccnc2cc1OCCCN1CCCC(C)C1 (stereo not shown) [Example 51, 2,6-Dichloro-N-(3-fluoro-4-{6-methoxy-7-[3-(3-methyl-piperidin-1-yl)-propoxy]-quinolin-4-yloxy}-phenyl)-benzenesulfonamide] | ≤ 12.5 µM | ≤ 12.5 µM | > 12.5 µM | ≥ 4.90 | –
